Experimental data as given in patent US20060079453A1, “Hla binding peptides and their uses” (priority 2002, published 2006).
No end group written: not given here.

Assays:
Assay in all cases: biochemical
Type in all cases: binding
HLA-DR DRB4*0101 (DR53) = HLA-DR DRB4*0101 (DR53) (Homo sapiens, UniProt P01903+P13762, G164S); conditions: DRB4 *0101
HLA-DR DRB1*1302 (DR13) = HLA-DR DRB1*1302 (DR13) (Homo sapiens, UniProt P01903+P01911, A100E/A169T/K41T/L162R/M171V/P40S/Q125H/Q178H/Q39Y/Q99D/R42S/S66N/T262R/V115G/W38E/Y61H); conditions: DRBI *1302
HLA-DR DRB1*1302 (DR13), sequence (P01903 26-254 limits assumed, other chains not shown): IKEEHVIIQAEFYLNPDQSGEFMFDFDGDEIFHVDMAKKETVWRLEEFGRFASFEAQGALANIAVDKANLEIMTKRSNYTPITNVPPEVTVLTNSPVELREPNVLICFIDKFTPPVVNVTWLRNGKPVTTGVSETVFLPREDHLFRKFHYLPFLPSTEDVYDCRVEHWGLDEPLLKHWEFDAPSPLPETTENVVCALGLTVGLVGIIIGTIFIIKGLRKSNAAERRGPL

HLA-DR DRB1*0901 (DR9) = HLA-DR DRB1*0901 (DR9) (Homo sapiens, UniProt P01903+P01911, A100R/A103E/D57H/D86V/F55Y/F60I/F76Y/I96F/K127E/L162R/M171V/P40D/Q125H/Q99R/R33Q/R42F/S133A/S66N/T210M/V115G/W38K/Y107V/Y59G/Y89S); conditions: DRB1 *0901
HLA-DR DRB1*0802 (DR8) = HLA-DR DRB1*0802 (DR8) (Homo sapiens, UniProt P01903+P01911, A100R/A103L/A169T/F76Y/H45Y/I96F/K41T/L162R/M171V/P40S/Q125H/Q178H/Q39Y/Q99D/R218S/R42G/S66Y/V115G/W38E)
HLA-DR DRB1*1501 (DR15) = HLA-DR DRB1*1501 (DR15) (Homo sapiens, UniProt P01903+P01911); conditions: DRBI *1501
HLA-DR DRB1*1101 (DR11) = HLA-DR DRB1*1101 (DR11) (Homo sapiens, UniProt P01903+P01911, A100R/A169T/A87E/I96F/K41T/L162R/M171V/P40S/Q125H/Q178H/Q39Y/Q99D/R42S/S66Y/T262R/V115G/W38E); conditions: DRB1 *1101
HLA-DR DRB1*1101 (DR11), sequence (P01903 26-254 limits assumed, other chains not shown): as above

HLA-DR DRB1*0401 (DR4) = HLA-DR DRB1*0401 (DR4) (Homo sapiens, UniProt P01903+P01911, A100K/A169T/F76Y/I96L/K127E/L162R/M171V/N62H/P40V/Q125Y/R42H/S133A/S149N/S66Y/V115G/V209L/W38E); conditions: DRB1 *0401
HLA-DR DRB1*0405 (DR4) = HLA-DR DRB1*0405 (DR4) (Homo sapiens, UniProt P01903+P01911, A100R/A169T/D86S/F76Y/I96L/K127E/L162R/M171V/N62H/P40V/Q125Y/R42H/S133A/S149N/S66Y/V115G/V209L/W38E); conditions: DRB1 *0405
HLA-DR DRB5*0101 (DR51) = HLA-DR DRB5*0101 (DR51) (Homo sapiens, UniProt P01903+Q30154); conditions: DRB5 *0101
HLA-DR DRB1*0701 (DR7) = HLA-DR DRB1*0701 (DR7) (Homo sapiens, UniProt P01903+P01911, A100R/A102G/A103Q/D57E/D86V/E43K/F76Y/K127E/L162R/M171V/P40G/Q125H/Q99D/R33Q/R42Y/R54Q/S133A/S66F/T210M/V115G/Y107V/Y59L/Y89S); conditions: DRB1 *0701
HLA-DR DRB1*0301 (DR3) = HLA-DR DRB1*0301 (DR3) (Homo sapiens, UniProt P01903+P01911, A100K/A102G/A103R/A169T/F55Y/I96L/K41T/L162R/M171V/P40S/Q125H/Q178H/Q39Y/R42S/S66N/T106N/T262R/W38E/Y61H)
HLA-DR DRB1*0301 (DR3), sequence (P01903 26-254 limits assumed, other chains not shown): as above

HLA-DR DRB3*0101 (DR52) = HLA-DR DRB3*0101 (DR52) (Homo sapiens, UniProt P01903+P79483)
HLA-DR DRB1*0101 (DR1) = HLA-DR DRB1*0101 (DR1) (Homo sapiens, UniProt P01903+P01911, A100R/D57E/F55L/F60I/F76Y/I96L/L162R/M171V/P40L/Q125E/R42F/V115G/Y59C); conditions: DRB1 *0101

Row | Sequence | IC50 (HLA-DR DRB4*0101 (DR53)) | IC50 (HLA-DR DRB1*1302 (DR13)) | IC50 (HLA-DR DRB1*0901 (DR9)) | IC50 (HLA-DR DRB1*0802 (DR8)) | IC50 (HLA-DR DRB1*1501 (DR15)) | IC50 (HLA-DR DRB1*1101 (DR11)) | IC50 (HLA-DR DRB1*0401 (DR4)) | IC50 (HLA-DR DRB1*0405 (DR4)) | IC50 (HLA-DR DRB5*0101 (DR51)) | IC50 (HLA-DR DRB1*0701 (DR7)) | IC50 (HLA-DR DRB1*0301 (DR3)) | IC50 (HLA-DR DRB3*0101 (DR52)) | IC50 (HLA-DR DRB1*0101 (DR1))
1 | ALLKNYGLLYTFRKD | 1.34 µM | 0.00089 µM | 2.63 µM | 3.62 µM | 0.0065 µM | 1.74 µM | 0.16 µM | 0.303 µM | 0.029 µM | 5.92 µM | 5.98 µM | 0.05 µM | 0.019 µM
2 | DMDKVETFLRIVQTR | 0.19 µM | 3.38 µM | 51.5 µM | 0.183 µM | > 86.7 µM | 0.206 µM | 2.03 µM | 0.454 µM | – | 0.436 µM | 11.2 µM | 13.7 µM | 1.11 µM
3 | EHTSLNENITVPDTK | > 29 µM | 0.013 µM | > 78.9 µM | > 16.3 µM | 11.1 µM | > 408 µM | – | 1.24 µM | 5.55 µM | 37.2 µM | 33.6 µM | > 42.2 µM | 43.9 µM
4 | FVNQHLCGSHLVEAL [FVNQHLCGSHLVEAL] | – | 10.6 µM | > 63 µM | > 54.4 µM | 1.2 µM | > 1110 µM | 19.2 µM | > 20.7 µM | 47.2 µM | 0.679 µM | > 187 µM | > 95.2 µM | 0.583 µM
5 | ICLLLIQSWLEPVQF | 0.049 µM | 0.954 µM | > 59.5 µM | > 33.3 µM | 1.77 µM | > 15.4 µM | 11.3 µM | 0.071 µM | > 9.51 µM | 0.643 µM | 50.9 µM | 188 µM | –
6 | KEDSHTAWTIVRVEI | 0.018 µM | 3.05 µM | 6.08 µM | > 79 µM | 1.99 µM | 7.44 µM | 0.746 µM | 0.302 µM | 0.575 µM | 0.035 µM | 44.8 µM | 56.2 µM | 1.91 µM
7 | KLQTYPRTNTGSGTP | > 105 µM | 0.987 µM | > 29.2 µM | > 51.6 µM | 0.52 µM | 8.21 µM | > 26.5 µM | > 9.81 µM | > 14 µM | > 99.2 µM | > 205 µM | > 263 µM | > 10.1 µM
8 | LHKLQTYPRTNTGSG | 22.9 µM | > 12.6 µM | > 29.2 µM | 1.62 µM | 0.157 µM | 6.09 µM | – | > 7.4 µM | 0.04 µM | 40.2 µM | > 205 µM | > 263 µM | 2.12 µM
9 | QHLTGSHLVEALYLV | – | 6.86 µM | 42.3 µM | > 54.4 µM | 0.184 µM | > 10.5 µM | > 16.1 µM | 7.42 µM | 23.7 µM | 0.038 µM | 50.3 µM | 4.03 µM | 0.0093 µM
10 | QLAFDTYQEFEQNPQ | > 32.8 µM | 19.7 µM | > 59.5 µM | > 33.3 µM | > 86.7 µM | > 15.4 µM | 28.6 µM | 4.84 µM | > 9.51 µM | 21.1 µM | 7.85 µM | 0.738 µM | > 18 µM
11 | QSQKLLWQLNGRLEY | – | 0.155 µM | 5.92 µM | 0.991 µM | 0.108 µM | > 60.6 µM | 0.084 µM | 0.055 µM | 0.402 µM | – | 33.4 µM | 5.61 µM | 0.127 µM
12 | RLRIVRGTQLFEDNYAL | 0.12 µM | 0.0052 µM | 1.83 µM | 6.32 µM | 0.031 µM | 2.07 µM | 8.39 µM | 1.02 µM | 0.046 µM | 0.012 µM | 11.3 µM | 1.2 µM | 0.0048 µM
13 | RSSNTQTQKLLWQLN | 0.026 µM | – | > 77.3 µM | 1.28 µM | 2.74 µM | > 42.6 µM | 2.14 µM | 12.6 µM | 8.55 µM | 27.7 µM | 44.3 µM | 0.751 µM | 10.5 µM
14 | SDSNIYDLLKDLEEG | 24.3 µM | > 16.2 µM | 50.1 µM | > 33.3 µM | > 86.7 µM | > 15.4 µM | 17.5 µM | 0.137 µM | > 9.51 µM | > 85 µM | 124 µM | > 18.7 µM | > 18 µM
15 | TCVLGKLSQELHKLQ | 0.163 µM | > 12.6 µM | 17.9 µM | 7.66 µM | 2.01 µM | 1.4 µM | 14.8 µM | 9 µM | 3.99 µM | 18.7 µM | 29.5 µM | > 263 µM | 0.026 µM
16 | TSNLSTTVLGKLSQE | – | 9.33 µM | 2.47 µM | 2.06 µM | 7.7 µM | 0.534 µM | 8.02 µM | 9.28 µM | 2.53 µM | 31.3 µM | 86.8 µM | > 263 µM | –
17 | TTVLGKLSQELHKLQ | 0.241 µM | 12.7 µM | 23.8 µM | 16.2 µM | 0.525 µM | 3.52 µM | – | > 9.81 µM | 10.6 µM | – | 92.8 µM | > 263 µM | –
18 | VCGERGFFYTPKTRR | > 31 µM | 34.7 µM | 14.4 µM | 0.419 µM | > 25.6 µM | 3.82 µM | > 20.5 µM | > 15.1 µM | 0.092 µM | 5.49 µM | 1.99 µM | 17.4 µM | 9.62 µM
19 | VEALYLVCGERGSFY | – | 4.29 µM | 6.31 µM | > 54.4 µM | 1.24 µM | > 10.5 µM | – | 6.11 µM | 0.804 µM | 6.49 µM | 9.97 µM | > 95.2 µM | 0.088 µM
20 | VTGERGFFYTPKTRR | > 29.8 µM | 25.4 µM | > 300 µM | 9.41 µM | 2.82 µM | 10.1 µM | 7.23 µM | 13.4 µM | 0.54 µM | 27.8 µM | 3.02 µM | 244 µM | 18.9 µM
21 | YLVCGERGFFYTPKT | 34.5 µM | 9.27 µM | 1.52 µM | > 54.4 µM | 10.7 µM | > 10.5 µM | 1.44 µM | 0.73 µM | 95.2 µM | 64.6 µM | 37.2 µM | 92.8 µM | 11.1 µM
